Test results from patent US6906203B1, “Substituted 4H-chromene and analogs as activators of caspases and inducers of apoptosis and the use thereof” (Cytovia, Inc., priority 1999, dated 2005).
pEC50: −log10 of the molar value. “Also recorded” adds a separate entry of the source. Like-named read-outs stand apart in the source and are kept apart here.

What was measured:
ZR-75-1 cells [1] = test: Inhibition of cell proliferation (GI50), CellTiter 96 AQUEOUS One, ZR-75-1; type: cell-based; details: Homo sapiens, ZR-75-1, 48 h
Protocol: (§1) T-47D and ZR-75-1 cells were grown and harvested as in Example 148. An aliquot of 90 μl of cells ([…] cells/ml) was added to a well of a 96-well microtiter plate containing 10 μl of a 10% DMSO in RPMI-1640 media solution containing 1 nM to 100 μM of 2-amino-3-cyano-7-dimethylamino-4-(3-methoxy-4,5-methylenedioxyphenyl)-4H-chromene (Example 19) or other test compound (0.1 nM to 10 μM final). An aliquot of 90 μl of cells was added to a well of a 96-well microtiter plate containing 10 μl of a 10% DMSO in RPMI-1640 media solution without compound as the control sample for maximal cell proliferation (Amax). The samples were mixed by agitation and then incubated at 37° C. for 48 h in a 5% CO2-95% humidity incubator. […] Using an absorbance plate reader (Model 1420 Wallac Instruments), an initial reading (T=0) was made approximately 1-2 min after addition of the solution, employing absorbance at 490 nm. This determines the possible background absorbance of the test compounds. No absorbance for 2-amino-3-cyano-7-dimethylamino-4-(3-methoxy-4,5-methylenedioxyphenyl)-4H-chromene or its analogs was found at 490 nm. […]
(§2) The samples were mixed by agitation and then incubated at 37° C. for 0.5 h in a 5% CO2-95% humidity incubator. […] Absorbance was read as above, (AT=0) defining absorbance for initial cell number used as baseline in GI50 determinations.

T-47D cells [2] = test: Inhibition of cell proliferation (GI50), CellTiter 96 AQUEOUS One, T-47D; type: cell-based; details: Homo sapiens, T47D, 48 h
Protocol: as §1, §2

PC-3 cells = test: Cell cycle arrest by flow cytometry (propidium iodide), PC-3; type: cell-based; details: 1 μM, 18 h
Protocol: (§3) T47D, ZR-75-1 breast cancer cell lines and PC-3, an androgen-independent prostate cancer cell line were maintained and harvested as described in Example 148. Jurkat T leukemia cells were grown in RPMI 1640 media (Life Technologies, Inc.) +10% FCS (Sigma Chemical Company) in a 5% CO2-95% humidity incubator at 37° C., and maintained at a cell density between 4 and 8×10^5 cells/ml. 1×10^6 cells were induced with 1 μM of 2-amino-3-cyano-7-dimethylamino-4-(3-methoxy-4,5-methylenedioxyphenyl)-4H-chromene or 2-amino-3-cyano-7-dimethylamino-4-(3,4-methylenedioxyphenyl)-4H-chromene for 18 h at 37° C. As a control, cells were also incubated with DMSO. Cells were harvested at 1200 rpm and washed twice with 5 mM EDTA/PBS. Cells were then resuspended in 300 μl EDTA/PBS and […] of 100% ethanol, vortexed and incubated at room temperature for 1 h. Samples were spun down at 12000 rpm for 5 min and the supernatant was removed. A solution containing 100 μg/ml of propidium iodide and 1 mg/ml of RNAse A (fresh) was added to the samples and incubated for 1 h at room temperature. Samples were then transferred to 12×75 mm polystyrene tubes and analysed on a flow cytometer. All flow cytometry analyses were performed on FACScalibur (Becton Dickinson) using Cell Quest analysis software.

ZR-75-1 cells [3] = test: Caspase cascade activation assay (N-(Ac-DEVD)-N'-ethoxycarbonyl-R110 fluorogenic substrate) in ZR-75-1; type: cell-based, Human; details: 24 h incubation; for pEC50: read-out: Caspase potency EC50; for Caspase activity Ratio: ratio of net RFU of test compound to control
Protocol: (§4) Human breast cancer cell lines T47D and ZR-75-1 were grown according to media component mixtures designated by American Type Culture Collection +10% FCS (Life Technologies, Inc.), in a 5% CO2-95% humidity incubator at 37° C. T-47D and ZR-75-1 cells were maintained at a cell density between 30 and 80% confluency at a cell density of 0.1 to 0.6×10^6 cells/ml. Cells were harvested at 600×g and resuspended at 0.65×10^6 cells/ml into appropriate media +10% FCS . […] An aliquot of 45 μl of cells was added to a well of a 96-well microtiter plate containing 5 μl of a 10% DMSO in RPMI-1640 media solution without test compound as the control sample. The samples were mixed by agitation and then incubated at 37° C. for 24 h in a 5% CO2-95% humidity incubator. After incubation, the samples were removed from the incubator and 50 μl of a solution containing 20 μM of N-(Ac-DEVD)-N′-ethoxycarbonyl-R110 (SEQ ID NO: 1) fluorogenic substrate (Cytovia, Inc.; WO99/18856), 20% sucrose (Sigma), 20 mM DTT (Sigma), 200 mM NaCl (Sigma), 40 mM Na PIPES buffer pH 7.2, and 500 μg/ml lysolecithin (Calbiochem) was added. The samples were mixed by agitation and incubated at room temperature. Using a fluorescent plate reader (Model 1420 Wallac Instruments), an initial reading (T=0) was made approximately 1-2 min after addition of the substrate solution, employing excitation at 485 nm and emission at 530 nm, to determine the background fluorescence of the control sample. After the 3 h incubation, the samples were read for fluorescence as above (T=3 h).
(§5) The Relative Fluorescence Unit values (RFU) were used to calculate the sample readings as follows: RFU(T=3h)−Control RFU (T=0)=Net RFU(T=3h)
(§6) The EC50 (nM) was determined by a sigmoidal dose-response calculation (Prism 2.0, GraphPad Software Inc.).

T47D cells = test: Cell cycle arrest by flow cytometry (propidium iodide), T47D; type: cell-based, Human; details: 1 μM, 18 h
Protocol: as §3

T-47D cells [4] = test: Caspase cascade activation assay (N-(Ac-DEVD)-N'-ethoxycarbonyl-R110 fluorogenic substrate) in T-47D; type: cell-based, Human; details: 24 h incubation; for pEC50: read-out: Caspase potency EC50; for Caspase activity Ratio: ratio of net RFU of test compound to control
Protocol: as §4, §5, §6

Jurkat cells [5] = test: Nuclear fragmentation in Jurkat cells (Syto16 staining); type: cell-based; details: 100 nM or higher, 24 h
Protocol: The ability of 2-amino-3-cyano-7-dimethylamino-4-(3-methoxy-4,5-methylenedioxyphenyl)-4H-chromene to induce nuclear fragmentation was tested by treatment of Jurkat cells with the test compound followed by staining of the nucleus with Syto16, a fluorescent DNA dye. The nuclei of Jurkat cells treated with DMSO vehicle are round with dispersed chromatin that is moderately stained with Syto16 (FIG. 1A).

[6] = test system: poly(ADP)ribose polymerase (PARP) cleavage in Jurkat cells; test: PARP cleavage in Jurkat cells (western blot); type: cell-based
Protocol: A wide range of natural substrates are cleaved by the caspases during apoptosis. One of these is poly(ADP)ribose polymerase (PARP), an enzyme important in genome surveillance. The ability of 2-amino-3-cyano-7-dimethylamino-4-(3-methoxy-4,5-methylenedioxyphenyl)-4H-chromene to induce PARP cleavage was tested by treating Jurkat cells with the compound at a concentration of 2.5 μM for 5, 15 and 30 h. Control cultures were treated with DMSO vehicle or staurosporine, a known apoptosis inducer.

Jurkat T leukemia cells = test: Cell cycle arrest by flow cytometry (propidium iodide), Jurkat; type: cell-based; details: 1 μM, 18 h
Protocol: as §3

Jurkat cells [7] = test: Mitotic arrest in Jurkat cells (mitotic figures, Syto 16); type: cell-based; details: 6 h
Protocol: Jurkat cells were incubated with a range of concentrations of 2-amino-3-cyano-7-dimethylamino-4-(3-methoxy-4,5-methylenedioxyphenyl)-4H-chromene (0.02 μM to 5 μM) for 6 h under normal growth conditions; control cultures were treated with DMSO vehicle. The cells were then treated for 20 min. with 800 nM Syto 16. Cytospin preparations were then prepared and the samples were viewed by fluorescent microscopy using a fluorescein filter set. For each concentration of test compound, the number of mitotic figures were counted and expressed as a percentage of the total number of cells. Three fields from each condition were evaluated and the mean and SEM were calculated and plotted as a function of drug concentration (FIG. 3).

[8] = Homo sapiens, 0.016 to 1 μM final
[9] = Homo sapiens, T47D, 0.016 to 1 μM final

pEC50 (ZR-75-1 cells [3]; [8])	pEC50 (T-47D cells [4]; [9])	Compound	Caspase activity Ratio (ZR-75-1 cells [3])	Caspase activity Ratio (T-47D cells [4])	also measured
7.22		CN(C)c1ccc2c(c1)OC(N)=C(C#N)C2c1ccc2c(c1)OCO2 (centres unmarked) [Example 1, 2-Amino-3-cyano-7-dimethylamino-4-(3,4-methylenedioxyphenyl)-4H-chromene]	4.2		GI50 (ZR-75-1 cells [1]): 10000 nM; GI50 (T-47D cells [2]): 100 nM; Cell cycle arrest (PC-3 cells; listed as 2-amino-3-cyano-7-dimethylamino-4-(3,4-methylenedioxyphenyl)-4-H-chromene): progression and arrest in G2/M; Cell cycle arrest (PC-3 cells; listed as 2-amino-3-cyano-7-dimethylamino-4-(3,4-methylenedioxyphenyl)-4H-chromene): induce cell cycle arrest; Cell cycle arrest (T47D cells): progression and arrest in G2/M; also recorded: induce cell cycle arrest
7.02	6.76	COc1cc(C2C(C#N)=C(N)Oc3cc4c(cc32)OCO4)cc2c1OCO2 (centres unmarked) [Example 14, 2-Amino-3-cyano-4-(3-methoxy-4,5-methylenedioxyphenyl)-6,7-methylenedioxy-4H-chromene]	9.0	5.5	
7.42	7.06	COc1cc(C2C(C#N)=C(N)Oc3cc(N(C)C)ccc32)cc2c1OCO2 (centres unmarked) [Example 19, 2-Amino-3-cyano-7-dimethylamino-4-(3-methoxy-4,5-methylenedioxyphenyl)-4H-chromene]	6.3	5.5	Nuclear fragmentation (Jurkat cells [5]): shrunken and fragmented nuclei; GI50 (ZR-75-1 cells [1]): 500 nM; GI50 (T-47D cells [2]): 3 nM; PARP cleavage at 30 h [6]: virtually all of PARP was converted into its cleaved form; Cell cycle arrest (Jurkat T leukemia cells): progression and arrest in S/G2/M; also recorded: induces cell cycle arrest; Cell cycle arrest (PC-3 cells): progression and arrest in G2/M; also recorded: induce cell cycle arrest; Cell cycle arrest (T47D cells): progression and arrest in G2/M; also recorded: induce cell cycle arrest; Percent mitotic arrest versus drug concentration (Jurkat cells [7]; up to 1.0 μM (FIG. 3)): increasing percent mitotic arrest with increasing drug concentration; pEC50 (Jurkat cells [7]; Homo sapiens, 0.02 μM to 5 μM): ~6.90
7.60	7.31	COc1cc(C2C3=CC=C4N=CC=C4C3OC(N)=C2C#N)cc2c1OCO2 (centres unmarked) [Example 94, 2-Amino-3-cyano-4-(3-methoxy-4,5-methylenedioxyphenyl)-4H-indolo[4,5-b]pyran]	7.8	6.5	
7.92	7.77	COc1cc(C2C(C#N)=C(N)Oc3c2ccc2ccccc32)cc(Br)c1OC (centres unmarked) [Example 103, 2-Amino-3-cyano-4-(3-bromo-4,5-dimethoxyphenyl)-4H-naphtho[1,2-b]pyran]	4.2	2.2	

Further lines, the compound ahead of its results:

Compound	pEC50 (ZR-75-1 cells [3]; [8])	pEC50 (T-47D cells [4]; [9])	Caspase activity Ratio (ZR-75-1 cells [3])	Caspase activity Ratio (T-47D cells [4])	also measured
Cc1ccc(C2C(C#N)=C(N)Oc3cc(N(C)C)ccc32)cc1[N+](=O)[O-] (centres unmarked) [Example 4, 2-Amino-3-cyano-7-dimethylamino-4-(4-methyl-3-nitropheyl)-4H-chromene]			6.6	6.0	pEC50 (T-47D cells [4]; 0.016 to 1 μM final): 6.70; pEC50 (ZR-75-1 cells [3]; 0.016 to 1 μM final): 6.82
CN(C)c1ccc2c(c1)OC(N)=C(C#N)C2c1cccc([N+](=O)[O-])c1 (centres unmarked) [Example 38, 2-Amino-3-cyano-7-dimethylamino-4-(3-nitrophenyl)-4H-chromene]	7.66	7.35	6.5	12.7	
COc1cc(Br)c(C2C3=CC=C4N=CC=C4C3OC(N)=C2C#N)cc1OC (centres unmarked) [Example 95, 2-Amino-3-cyano-4-(2-bromo-4,5-dimethoxyphenyl)-4H-indolo[4,5-b]pyran]	6.44	6.14	5.1	3.8	
COc1cc(Br)c(C2C3=CC=C4N=C(C)C=C4C3OC(N)=C2C#N)cc1OC (centres unmarked) [Example 96, 2-Amino-3-cyano-4-(2-bromo-4,5-dimethoxyphenyl)-8-methyl-4H-indolo[4,5-b]pyran]			Inactive	Inactive	Caspase potency EC50 (nM) (T-47D cells [4]; 0.016 to 1 μM final): Inactive; Caspase potency EC50 (nM) (ZR-75-1 cells [3]; 0.016 to 1 μM final): Inactive
COc1cc(C2C3=CC=C4N=CC=C4C3OC(N)=C2C#N)cc(Br)c1OC (centres unmarked) [Example 97, 2-Amino-3-cyano-4-(3-bromo-4,5-dimethoxyphenyl)-4H-indolo[4,5-b]pyran]	8.15	8.22	5.0	2.7	
COc1cc(C2C3=CC=C4N=CC=C4C3OC(N)=C2C#N)cc(OC)c1OC (centres unmarked) [Example 99, 2-Amino-3-cyano-4-(3,4,5-trimethoxyphenyl)-4H-indolo[4,5-b]pyran]	7.64	7.44	4.3	2.8	
